{"source": "paper PMC9388626", "about": "“STUB1 is an intracellular checkpoint for interferon gamma sensing” (Scientific Reports, 2022)", "key": {"B16-F10 cells [1]": {"tested_on": "B16-F10 cells", "experiment": "Flow cytometry, surface level of other cytokine receptors (IL1R1, IL6R, GP130, IFNAR1)", "assay_type": "cell-based, murine", "description": "Cells were dissociated from the wells with 0.25% trypsin (Gibco, 25200056). After rinsing with 0.5 ml PBS, each sample was stained with the LIVE/DEAD Fixable Aqua dead cell staining solution (Life Technologies, L34957) in 100 µl PBS (1:1000 dilution) for 15 min at 4 °C. After rinsing with 2 × 0.5 ml PBS, each sample was stained with the corresponding primary antibody-dye conjugates diluted in 100 µl Pharmingen stain buffer (BD Biosciences, #554657). After 1 h staining at 4 °C, the cells were rinsed with 2 × 2 ml Pharmingen stain buffer and fixed with 4.21% (w/w) formaldehyde (BD Biosciences, #554655). Cells were analyzed on LSRFortessa X-20 (BD Biosciences) with appropiate fluorescence compensation. The data were analyzed using FlowJo. Cells were gated based on FSC and SSC. Single cells were selected using FSC-A and FSC-H and viable cells were selected using LIVE/DEAD signal. Primary antibodies used were: H-2K^b/H-2D^b (FITC, Biolegend, #114606, 1:50 dilution), HLA-A,B,C (FITC, Biolegend, #311404, 1:100 dilution), mouse IFNGR1 (PE, Invitrogen, #12-1191-82, 1:50 dilution), human IFNGR1 (PE, Miltenyi, #130-125-851, 1:50 dilution), mouse IL1R1 (APC, Biolegend, #113509, 1:20 dilution), mouse IL6R (APC, Biolegend, #115812, 1:20 dilution), mouse IFNAR1 (APC, Biolegend, #127314, 1:20 dilution), and mouse GP130 (PE, Biolegend, #149404, 1:100 dilution)."}, "B16-F10 cells [2]": {"tested_on": "B16-F10 cells", "experiment": "Proteomics by mass spectrometry", "assay_type": "cell-based, murine", "description": "After overnight incubation, the culture media were replaced with fresh media (DMEM + 10% FBS) supplemented with 0.03 ng ml^−1 of recombinant mouse IFNγ (R&D Systems, #485-MI-100). After 24 h treatment, the cells were trypsinized, collected and washed twice with 0.5 ml PBS. The cell pellets collected from three independent experiments on separate day were lysed in 100 µl of lysis buffer containing 4% sodium dodecyl sulfate, 50 mM Tris–HCl pH 7.5, 50 µg ml^−1 of DNase (Roche, #10104159001), 50 µg ml^−1 of RNase (Roche, #10109169001) and Halt protease inhibitor cocktail (Thermo Scientific, #78430) on ice for 30 min followed by 65 °C for 30 min. Lysates were clarified by centrifugation at 16,000 g at 10 °C for 30 min. Protein content was re-extracted from the pellet with 50 µl of lysis buffer, sonicated with a single burst using a probe sonicator and heated at 95 °C for 10 min before centrifugation at 16,000 g at 10 °C for 15 min. Lysates from first and second extractions were pooled. Protein concentration was determined using BCA protein assay kit (Pierce, # 23225). Detergent removal and protein digestion were performed in centrifugal suspension trap columns (Protifi, C02-micro) according to the manufacturer’s instructions. Briefly, 80 µg protein extract from each sample was reduced with 50 mM dithiothreitol (Sigma, #43815) at 95 °C for 10 min and then alkylated with 100 mM iodoacetamide (Sigma, I2512) in the dark at ambient temperature for 30 min. The samples were acidified with 1.2% of phosphoric acid and mixed well with washing buffer consisting of 90% methanol and 100 mM ammonium bicarbonate. The samples were transferred to the suspension trap columns and centrifuged at 4000 g for 30 s. The columns were washed 3 times with washing buffer. Proteins trapped in the suspension bed were digested in 50 mM ammonium bicarbonate with trypsin and endoproteinase Lys-C (Promega, V5073) at enzyme to protein ratio 1:25 in a 47 °C waterbath for 2 h. Peptides were eluted firstly with 50 mM ammonium bicarbonate, then with 0.2% formic acid and lastly with 50% acetonitrile and 0.2% formic acid. The eluates were pooled and vacuum dried completely. Dried peptides were reconstituted with 0.1% formic acid in water, followed by injecting 4 µg for mass spectrometry analysis. Peptides were loaded on a reverse phase EASY-Spray column (50 cm × 75 μm inner diameter) operated using Easy-nLC 1200 (Thermo Fisher Scientific) coupled online to a Q-Exactive HF-X mass spectrometer (Thermo Fisher Scientific). Peptides were separated using a 120 min linear gradient at a flow rate of 300 nL min^−1. The Q-Exactive was operated in ‘top-10’ data-dependent acquisition (DDA) mode with full scan acquired at a resolution of 120,000 (scan range 200–1800 m/z) with an automatic gain control (AGC) target of 3e6. The top ten most abundant ions from the full scan were isolated with an isolation width of 0.7 m/z and fragmented by higher energy collisional dissociation (HCD) with normalized collision energy (NCE) of 27. MS/MS scan was acquired at a resolution of 30,000 with an AGC target of 1e5. The default charge state was set at 2 and dynamic exclusion was enabled for 10 s. Maximum ion injection time for full scan and MS/MS scan were 100 ms and 105 ms respectively.\nDDA raw files were processed with Proteome Discoverer 2.4 using Sequest HT search engine where mass spectrometric data was searched against SwissProt TaxID 10090 mouse database (v2017-10-25). Percolator was used to validate search results based on the concatenated mode where only the best scoring PSMs (target/decoy) were considered. Trypsin was specified as the enzyme, cleaving after all lysine and arginine residues and allowing up to two missed cleavages. Carbamidomethylation of cysteines was set as fixed modification while variable modifications included oxidation of methionine, acetylation of N-terminus, N-terminal loss of methionine and N-terminal loss of metionine along with the addition of an acetyl group. […]"}}, "data": [{"substance": "gStub1 #1 (guide GCATTGCTAAGAAGAAGCGC; chemistry not given here)", "values": [{"measurement": "Surface GP130 (Fig. 2d)", "setting": "B16-F10 cells [1]; replicate 1", "value": 1.09}, {"measurement": "Surface IFNAR1 (Fig. 2d)", "setting": "B16-F10 cells [1]; replicate 1", "value": 0.74}, {"measurement": "Surface IL1R1 (Fig. 2d)", "setting": "B16-F10 cells [1]; replicate 1", "value": 0.96}, {"measurement": "Surface IL6R (Fig. 2d)", "setting": "B16-F10 cells [1]; replicate 1", "value": 0.93}, {"measurement": "Surface GP130 (Fig. 2d)", "setting": "B16-F10 cells [1]; replicate 2", "value": 1.26}, {"measurement": "Surface IFNAR1 (Fig. 2d)", "setting": "B16-F10 cells [1]; replicate 2", "value": 0.87}, {"measurement": "Surface IL1R1 (Fig. 2d)", "setting": "B16-F10 cells [1]; replicate 2", "value": 0.97}, {"measurement": "Surface IL6R (Fig. 2d)", "setting": "B16-F10 cells [1]; replicate 2", "value": 1.17}, {"measurement": "Surface GP130 (Fig. 2d)", "setting": "B16-F10 cells [1]; replicate 3", "value": 1.41}, {"measurement": "Surface IFNAR1 (Fig. 2d)", "setting": "B16-F10 cells [1]; replicate 3", "value": 1.30}, {"measurement": "Surface IL1R1 (Fig. 2d)", "setting": "B16-F10 cells [1]; replicate 3", "value": 1.05}, {"measurement": "Surface IL6R (Fig. 2d)", "setting": "B16-F10 cells [1]; replicate 3", "value": 1.24}, {"measurement": "Surface GP130 (Fig. 2d)", "setting": "B16-F10 cells [1]; replicate 4", "value": 1.20}, {"measurement": "Surface IFNAR1 (Fig. 2d)", "setting": "B16-F10 cells [1]; replicate 4", "value": 1.03}, {"measurement": "Surface IL1R1 (Fig. 2d)", "setting": "B16-F10 cells [1]; replicate 4", "value": 1.02}, {"measurement": "Surface IL6R (Fig. 2d)", "setting": "B16-F10 cells [1]; replicate 4", "value": 1.10}, {"measurement": "Log2(FC)", "setting": "B16-F10 cells [2]; B2M (Fig. 2g)", "value": 2.591}, {"measurement": "Log2(FC)", "setting": "B16-F10 cells [2]; BST2 (Fig. 2g)", "value": 2.607}, {"measurement": "Log2(FC)", "setting": "B16-F10 cells [2]; ERAP1 (Fig. 2g)", "value": 2.501}, {"measurement": "Log2(FC)", "setting": "B16-F10 cells [2]; GBP2 (Fig. 2g)", "value": 4.916}, {"measurement": "Log2(FC)", "setting": "B16-F10 cells [2]; H2-D1 (Fig. 2g)", "value": 1.708}, {"measurement": "Log2(FC)", "setting": "B16-F10 cells [2]; IFI35 (Fig. 2g)", "value": 2.548}, {"measurement": "Log2(FC)", "setting": "B16-F10 cells [2]; IRGM1 (Fig. 2g)", "value": 4.787}, {"measurement": "Log2(FC)", "setting": "B16-F10 cells [2]; MOV10 (Fig. 2g)", "value": 1.934}, {"measurement": "Log2(FC)", "setting": "B16-F10 cells [2]; PSME1 (Fig. 2g)", "value": 1.818}, {"measurement": "Log2(FC)", "setting": "B16-F10 cells [2]; PSME2 (Fig. 2g)", "value": 2.036}, {"measurement": "Log2(FC)", "setting": "B16-F10 cells [2]; STAT1 (Fig. 2g)", "value": 2.521}, {"measurement": "Log2(FC)", "setting": "B16-F10 cells [2]; STAT3 (Fig. 2g)", "value": 1.035}, {"measurement": "Log2(FC)", "setting": "B16-F10 cells [2]; TGTP1/TGTP2 (Fig. 2g)", "value": 7.1}]}]}
